Source: patent US7704948B2, “Pharmaceutical composition” (Euro-Celtique S.A., priority 2001, dated 2010)

Assays:
[1] = Stability of bisacodyl in poloxamer melt; type: physicochemical; details: hot melt of bisacodyl and poloxamer
Text: Such a product will have advantages with regard to dosage form and other properties. […] Furthermore production scale enteric coating of capsules containing a low melting point, waxy, solid is very difficult due to melting and leakage or softening and deformation of the waxy, low melting point poloxamer.

[2] = cited from earlier work

## CC(=O)Oc1ccc(C(c2ccc(OC(C)=O)cc2)c2ccccn2)cc1 [Bisacodyl]
[1]
  stability of bisacodyl in poloxamer: unstable in poloxamer
[2]; following oral administration
  time to action in the large intestine: 6 to 12 h
[2]; suppositories
  onset of action: 20 to 60 min
